# Source: US9604894B2, “Compounds from antrodia camphorate and their use in treatment of diabetes mellitus” (National Dong Hwa University, priority 2014, dated 2017)
# Entries after “also recorded” stand apart in the source; their conditions may differ.
# Key:
# C57 BL/6 mice = test: Oral glucose tolerance test in S961-induced insulin resistance mice; assay type: in vivo, mouse; conditions: D-glucose 2 g/kg; for hypoglycemic efficacy, OGTT blood glucose AUC: S961 50 nmol/kg Bwt, enantiomer 50 mg/kg Bwt p.o., FIG. 7(B)
# Method: (§1) Animal experiments were approved by the National Dong-Hwa University Animal Ethics Committee and were used according to the “Guide for the Care and Use of Laboratory Animals” of National Dong-Hwa University. C57BL/6 mouse and Imprinting Control Region (ICR) mouse were obtained National Laboratory Animal Center (Taipei, Taiwan) and kept at controlled environmental conditions with room temperature (22±2° C.) and humidity (50±10%). The 12 h light (0600 am-1800 pm) and 12 h dark cycle was maintained throughout the study. Mice had free access to food and water and maintained on a standard laboratory diet (carbohydrates; 60%, proteins; 28%, lipids; 12%, vitamins; 3%).
# (§2) Mice were employed to this test after fasting 12 h. Mice were treated with D-glucose by oral gavage (2 g/kg, p.o.). At approximately 0, 30, 60, 90, and 120 min, blood was sampled by venipuncture from the tail vein for the determining blood glucose. Blood glucose was immediately determined by the glucose oxidase method using glucose analyzer (Accu-Chek, Roche).
# 8 weeks old male C57 BL/6 mice were employed to this test after fasting 12 h. To investigate the effect of natural compounds on the 5961 (insulin receptor antagonist, Novo-Nordisk, Denmark) induced hyperglycemia, mice was intraperitoneally injected (i.p.) S961 (50 nmol/kg Bwt) at 15 min prior to oral gavaged (p.o.) with antroquinonol (dissolved in PEG and EtoH, 50 mg/kg Bwt) and D-glucose (2 g/kg Bwt). At approximately 0, 30, 60, 90, and 120 min, blood was sampled by venipuncture from the tail vein for OGTT test.
# [1] = system: AKT Thr308 phosphorylation; test: AKT Thr308 phosphorylation, Western blot in differentiated C2C12 cells; assay type: cell-based, mouse; conditions: C2C12, 37° C., 30 min; insulin 100 nM, metformin 16 mM, antroquinonol 25 μM; FIG. 3(A)
# Method: FIG. 3(A) provides the results of the AKT Thr308 phosphorylation induced by insulin, metformin (Met) and antroquinonol (Ant); wherein the differentiated C2C12 cells were incubated with 100 nM of insulin, 16 mM of metformin (Met), or 25 μM of antroquinonol (Ant) at 37° C. for 30 min, and then the cell lysates were separated by SDS-PAGE and blotted for phospho-AKT Thr308; wherein the data were expressed as means with standard errors of mean (mean±SEM), and different letters represent the significant differences (p<0.05) among the various treatments.
# Mouse muscle myoblast cells (C2C12) were obtained from the Food Industry Research and Development Institute (FIRDI, Hsinchu, Taiwan). The cells were grown and maintained in Dulbecco's Modified Eagle's Medium containing high level of glucose (DMEM-high glucose; GIBCO, Carlsbad, Calif., USA) supplemented with 10% fetal bovine serum (FBS, GIBCO) and 1% penicillin streptomycin (GIBCO) in a cell culture incubator with 5% CO2 at 37° C. Prior to experiment, the cells were seeded and cultured at a density of 8×10^3 cells per well in 96-well plates or 2.5×10^5 cells per well in 6-well plates. […]
# (§3) After treatments, the cells were collected and washed twice in cold KRH buffer (containing 50 mM HEPES, 137 mM NaCl, 4.8 mM KCl, 1.85 mM CaCl2, 1.3 mM MgSO4), and then lysed in ice-cold RIPA buffer (containing 50 mM Tris-HCl, pH 8.0, 150 mM NaCl, 5 mM NaF, 1% NP40, 1 mM sodium orthovanadate, 0.5% sodium deoxycholate, 0.1% sodium dodecyl sulphate (SDS), protease inhibitors, and phosphatase inhibitors (DE-68305, Roche, Mannheim, Germany)) and incubated at 4° C. for 60 min. After centrifugation of the cells at 12,000×g at 4° C. for 30 min, the supernatant was kept and quantified by Bradford protein assay (Bio-Rad, Hercules, Calif., USA). […] The signals were monitored using Western Lightning™ Plus-ECL (Perkin Elmer Life Sciences) and the PVDF membrane was exposed to Luminescent image analyzer (LAS)-3000 (Fujifilm, Minato, Tokyo, Japan). The acquired data were analyzed and compared the difference among various treatments. […]
# [2] = system: AMPK Thr172 phosphorylation; test: AMPK Thr172 phosphorylation, Western blot in differentiated C2C12 cells; assay type: cell-based, mouse; conditions: C2C12, 37° C., 30 min; insulin 100 nM, metformin 16 mM, antroquinonol 25 μM; FIG. 3(B)
# Method: FIG. 3(B) provides the results of AMPK Thr172 phosphorylation induced by insulin, metformin (Met) and antroquinonol (Ant); wherein the differentiated C2C12 cells were incubated with 100 nM of insulin, 16 mM of metformin (Met), or 25 μM of antroquinonol (Ant) at 37° C. for 30 min, and then the cell lysates were separated by SDS-PAGE and blotted for phospho-AMPK Thr172; wherein the data were expressed as means with standard errors of mean (mean±SEM), and different letters represent the significant differences (p<0.05) among the various treatments.
# Mouse muscle myoblast cells (C2C12) were obtained from the Food Industry Research and Development Institute (FIRDI, Hsinchu, Taiwan). […]
# After treatments, the cells were collected and washed twice in cold KRH buffer (containing 50 mM HEPES, 137 mM NaCl, 4.8 mM KCl, 1.85 mM CaCl2, 1.3 mM MgSO4), and then lysed in ice-cold RIPA buffer (containing 50 mM Tris-HCl, pH 8.0, 150 mM NaCl, 5 mM NaF, 1% NP40, 1 mM sodium orthovanadate, 0.5% sodium deoxycholate, 0.1% sodium dodecyl sulphate (SDS), protease inhibitors, and phosphatase inhibitors (DE-68305, Roche, Mannheim, Germany)) and incubated at 4° C. for 60 min. After centrifugation of the cells at 12,000×g at 4° C. for 30 min, the supernatant was kept and quantified by Bradford protein assay (Bio-Rad, Hercules, Calif., USA). […]
# [3] = target: T1, Dipeptidyl peptidase-4 (DPP4) (Homo sapiens, UniProt P27487); test: DPP4 enzyme activity (DPPIV/CD26 Assay Kit); assay type: biochemical; conditions: 100 μM, 30 min at RT; FIG. 2
# T1 construct: purchased Enzo BML-AK498
# Method: Dipeptidyl peptidase-4 (DPP4), also known as adenosine deaminase complexing protein 2 or CD26 (cluster of differentiation 26), is […]. DPP4 enzyme activity was measured by a DPPIV/CD26 Assay Kit (BML-AK498, Enzo, N.Y., USA). This assay is based on the cleavage of the p-nitroaniline (pNA) from the chromogenic substrate (H-Gly-Pro-pNA) to increase the absorbance at 405 nm. Firstly 50 μL of assay buffer (50 mM Glycine, pH 8.7, 1 mM EDTA) per will was added into the 96-well clear microplate, and then 20 μL of DPP4 enzyme (13 μU/μL), 20 μL of tested inhibitors, 100 μM of antroquinonol or known clinical drug sitagliptin, and finally 10 μL of pNA substrate were added to each well sequentially. After an incubation of reaction mixture at room temperature (RT) for 30 min, the absorbance of each sample was read at 405 nm by the ELISA plate reader (Thermo Labsystems, Opsys MR, Thermo fisher scientific).
# PKA protein level = test: Glucagon like peptide-1 induced PKA protein level, Western blot in AR42J cells; assay type: cell-based, rat; conditions: 5 μM and 20 μM, with 1 nM GLP-1 or 1 nM exendin-4, 48 h, FIG. 4
# Method: Rat pancreas tumor cells (AR42J) were obtained from the Food Industry Research and Development Institute (FIRDI, Hsinchu, Taiwan). The cells were grown and maintained in DMEM (GIBCO) supplemented with 20% fetal bovine serum (FBS, GIBCO) and 1% penicillin streptomycin (GIBCO) and 2 mM of L-glutamin in a cell culture incubator with 5% CO2 at 37° C. Prior to the experiments, the cells were seeded and cultured for 16-24 h.
# as §3
# GLUT4 translocation = test: Measurement of GLUT4 translocation in differentiated C2C12 cells; assay type: cell-based, mouse; conditions: FIG. 5(A)
# Method: Mouse muscle myoblast cells (C2C12) were obtained from the Food Industry Research and Development Institute (FIRDI, Hsinchu, Taiwan). The cells were grown and maintained in Dulbecco's Modified Eagle's Medium containing high level of glucose (DMEM-high glucose; GIBCO, Carlsbad, Calif., USA) supplemented with 10% fetal bovine serum (FBS, GIBCO) and 1% penicillin streptomycin (GIBCO) in a cell culture incubator with 5% CO2 at 37° C. Prior to experiment, the cells were seeded and cultured at a density of 8×10^3 cells per well in 96-well plates or 2.5×10^5 cells per well in 6-well plates. After the myoblasts achieved 80% confluence, the cells were incubated for 4 days in DMEM—high glucose supplemented with 1% FBS and 1% horse serum induced differentiation to myotubes.
# C2C12 was fully differentiated with DMEM supplemented with 1% FBS and 1% horse serum for 4 days. The cells were washed twice with PBS containing 0.1% BSA and subsequently incubated in PBS with or without the treatment with 185 μM insulin (Ins), 16 mM metformin (Met), or 50, 100, and 150 μM of antroquinonol (Ant) for 55 min (n=5 in each group) respectively, and then placed on ice and immediately fixed with 1% glutaraldehyde in PBS at RT for 10 min. […] HRP activity was determined by measuring the absorbance at 450 nm with a spectrophotometer (EnSpire 2300 Multilabel Reader, Perkin Elmer, Waltham, Mass., USA). […]
# DIO ICR mice [4] = test: Short term glucose tolerance (OGTT) in diet-induced obesity (DIO) ICR mice; assay type: in vivo, mouse; conditions: antroquinonol 25 mg/kg Bwt versus Sitagliptin 20 mg/kg Bwt, 15 min before D-glucose 2 g/kg, FIG. 8
# Method: as §1, §2
# (§4) 8 weeks old ICR male mice were induced with high fat die and 60% fructose water for 10 weeks. […] Blood glucose was immediately determined by the glucose oxidase method using glucose analyzer (Accu-Chek, Roche), when blood sugar was sustained at higher level than 200 mg/dl after 120 min oral glucose that defined high blood sugar. […]
# DIO ICR mice [5] = test: Long term glucose tolerance (OGTT) in diet-induced obesity (DIO) ICR mice; assay type: in vivo, mouse; conditions: antroquinonol 25 mg/kg Bwt versus Sitagliptin 10 mg/kg Bwt, q.o.d. for 4 weeks, FIG. 9
# Method: as §1, §2, §4
# T1 sequence (P27487 whole entry): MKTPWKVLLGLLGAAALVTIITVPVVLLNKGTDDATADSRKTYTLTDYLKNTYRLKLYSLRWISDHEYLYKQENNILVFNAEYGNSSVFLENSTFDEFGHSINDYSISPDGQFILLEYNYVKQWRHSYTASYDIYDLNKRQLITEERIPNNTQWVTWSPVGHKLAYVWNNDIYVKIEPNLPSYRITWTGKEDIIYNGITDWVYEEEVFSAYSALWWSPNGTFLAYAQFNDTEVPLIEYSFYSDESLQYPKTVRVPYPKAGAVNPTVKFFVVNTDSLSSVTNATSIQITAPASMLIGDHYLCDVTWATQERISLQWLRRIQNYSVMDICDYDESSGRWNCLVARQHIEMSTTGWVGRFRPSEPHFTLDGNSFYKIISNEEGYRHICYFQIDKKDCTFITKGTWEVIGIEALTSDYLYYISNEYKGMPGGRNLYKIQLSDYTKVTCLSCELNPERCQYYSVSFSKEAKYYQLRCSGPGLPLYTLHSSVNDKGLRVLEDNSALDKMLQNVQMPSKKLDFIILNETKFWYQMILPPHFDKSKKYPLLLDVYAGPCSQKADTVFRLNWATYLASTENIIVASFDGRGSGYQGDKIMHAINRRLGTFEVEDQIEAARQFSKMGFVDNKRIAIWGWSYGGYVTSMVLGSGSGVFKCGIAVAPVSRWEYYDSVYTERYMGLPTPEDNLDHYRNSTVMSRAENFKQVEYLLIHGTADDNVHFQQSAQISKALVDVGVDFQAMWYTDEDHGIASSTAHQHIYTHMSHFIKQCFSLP
Compound,"hypoglycemic efficacy, OGTT blood glucose AUC (C57 BL/6 mice)",AKT Thr308 phosphorylation [1],AMPK Thr172 phosphorylation [2],also measured
(+)-antroquinonol,had the hypoglycemic efficacy,–,–,–
COC1=C(OC)[C@@H](O)[C@@H](C/C=C(\C)CC/C=C(\C)CCC=C(C)C)[C@H](C)C1=O [(−)-antroquinonol],had the hypoglycemic efficacy,–,–,–
insulin,–,induced insulin signaling pathway at the phosphorylation of AKT Thr308,–,–
"CN(C)C(=N)N=C(N)N [metformin, reference compound]",–,not,provided an effect in action to the phosphorylation of AMPK Thr172,–
COC1=C(OC)[C@H](O)[C@H](C/C=C(\C)CC/C=C(\C)CCC=C(C)C)[C@@H](C)C1=O [antroquinonol],–,not,significantly better efficacy on the phosphorylation of AMPK Thr172 than insulin and metformin,"inhibitory rate of DPP4 activity (compared to the control without treatment) [3]: up to 50%; PKA protein level (PKA protein level): PKA protein level was expressed; GLUT4 translocation, comparison with metformin (GLUT4 translocation; C2C12, 100 μM of antroquinonol): equivalent to 16 mM metformin; GLUT4 translocation (GLUT4 translocation; C2C12, antroquinonol 50, 100, 150 μM versus insulin 185 μM and metformin 16 mM, 55 min): good effect on GLUT4 translocation similar to insulin (Ins), and which is even better than metformin (Met); also recorded: enhanced GLUT4 translocation with dose-dependent manner; hypoglycemic efficacy, OGTT blood glucose AUC (ratio to the control) (C57 BL/6 mice; S961-treated mice, antroquinonol 50 mg/kg Bwt p.o., metformin 100 mg/kg as positive control, FIG. 7(A)): had the hypoglycemic efficacy in the condition of insulin resistance through the oral glucose tolerance test (OGTT), similar to Metformin; glucose tolerance, OGTT blood glucose AUC, short term (DIO ICR mice [4]): effects similar to Sitagliptin; glucose tolerance, OGTT blood glucose AUC, long term (DIO ICR mice [5]): effects similar to Sitagliptin"
